Patent US11103448B2, “Manufacture of pharmaceutical compositions” (VECTURA LIMITED, priority 2003, dated 2021)

Test: Particle size distribution by Malvern particle sizer (dry powder)
Assay type: physicochemical
Method: The particle size distributions of these powdered materials indicate both the level of size reduction obtained by the co-milling, and the level of dispersion efficiency at varied pressures. The d(50) and d(97) plots provide a further indication of this dispersibility of the powders as a function of pressure.
Particle size distributions of the raw materials and selected formulations were determined by Malvern particle sizer, via the Scirroco dry powder disperser.
Twelve formulations were produced from the original powder, using the Hosokawa AS50 jet mill. Either the pure drug was passed through the mill or a blend of drug with 5% w/w of a force control agent added. The mill was used with a range of parameters. Primarily, these were injector air pressure, grinding air pressure and powder feed rate.

SMILES: CN1C(=O)CC(=O)N(c2ccccc2)c2cc(Cl)ccc21 [clobozam]
- d(50) (clobozam after co-jet milling): about 1 μm
- d(50) (clobozam before co-jet milling): about 2.6 μm
